Experimental data as given in patent US4966900A, “Cephalosporin β-lactam compound and medicinal composition” (priority 1986, dated 1990).
Converted amounts (≈) assume the structure as drawn.

Key:
Test in all cases: MIC
K. pneumoniae 4at521 = conditions: Klebsiella pneumoniae, 4AT521
S. aureus Smith = conditions: Staphylococcus aureus, Table 5
C. freundii 1U589 = conditions: Citrobacter freundii, 1U589
P. vulgaris GN7919 = conditions: Proteus vulgaris, GN7919
P. maltophilia OF247 = conditions: Stenotrophomonas maltophilia, Table 5
C. freundii 5D60-1 = conditions: Citrobacter freundii, 5D601
C. freundii 1U692 = conditions: Citrobacter freundii, 1U692
P. aeruginosa 4au542 = conditions: Pseudomonas aeruginosa, 4AU542, P. aeruginosa 4au542; Table 5
P. aeruginosa GN10362 = conditions: Pseudomonas aeruginosa, GN10362
S. marcescens GN10857 = conditions: Serratia marcescens, GN10857, S. marcescens GN10857; Table 5
E. cloacae 908RN = conditions: Enterobacter cloacae
E. cloacae 1Y247 = type: cell-based; conditions: Enterobacter cloacae, Table 6, read-out: MIC
Description: (§1) The minimum inhibition concentrations (MIC) of the compounds obtained in the respective examples described above were measured according to the standard method of Japanese Chemotherapy Association.

S. aureus IAA498 = type: cell-based; conditions: Staphylococcus aureus, Table 5
Description: as §1

E. coli ML4707 = conditions: Escherichia coli, ML4707, E. coli ML4707; Table 5
C. freundii 1R526 = conditions: Citrobacter freundii, 1R526
E. coli GN5482 = conditions: Escherichia coli, GN5482, E. coli GN5482; Table 5
C. freundii 1R524 = conditions: Citrobacter freundii, 1R524
E. cloacae 1V25 = conditions: Enterobacter cloacae
E. cloacae 5D63-2 = conditions: Enterobacter cloacae, 5D632
P. cepacia OF189 = conditions: Burkholderia cepacia, OF189, P. cepacia OF189; Table 5
C. freundii 1R523 = conditions: Citrobacter freundii, 1R523
C. freundii GN7391 = conditions: Citrobacter freundii, GN7391, C. freundii GN7391
E. cloacae 5D52-2 = conditions: Enterobacter cloacae, 5D522
C. freundii 1R527 = conditions: Citrobacter freundii, 1R527
E. colacae GN7471 = conditions: Table 5
P. aeruginosa 5D58-1 = conditions: Pseudomonas aeruginosa, 5D581, P. aeruginosa 5D58-1; Table 5

Compound	MIC (K. pneumoniae 4at521)	MIC (S. aureus Smith)	MIC (C. freundii 1U589)	MIC (P. vulgaris GN7919)	MIC (P. maltophilia OF247)	MIC (C. freundii 5D60-1)	MIC (C. freundii 1U692)	MIC (P. aeruginosa 4au542)	MIC (P. aeruginosa GN10362)	MIC (S. marcescens GN10857)	MIC (E. cloacae 908RN; E. cloacae 908RN, Table 6)	MIC (E. cloacae 908RN; E. colacae 908RN, Table 5)	MIC (E. cloacae 1Y247)	MIC (S. aureus IAA498)	MIC (E. coli ML4707)	MIC (C. freundii 1R526)	MIC (E. coli GN5482)	MIC (C. freundii 1R524)	MIC (E. cloacae 1V25)	MIC (E. cloacae 5D63-2)	other results
Cc1nc2ncnn2c(SCC2=C(C(=O)O)N3C(=O)C(NC(=O)C(=NOC(C)(C)C(=O)NNC(=O)c4ccc(O)c(O)c4)c4csc(N)n4)C3SC2)c1C (stereo not drawn) [Example 39]	0.012 µg/mL (≈ 0.015 µM)	12.5 µg/mL (≈ 15.7 µM)	0.39 µg/mL (≈ 0.489 µM)	0.78 µg/mL (≈ 0.978 µM)	0.2 µg/mL (≈ 0.251 µM)	0.39 µg/mL (≈ 0.489 µM)	0.39 µg/mL (≈ 0.489 µM)	0.39 µg/mL (≈ 0.489 µM)	0.2 µg/mL (≈ 0.251 µM)	0.2 µg/mL (≈ 0.251 µM)	3.13 µg/mL (≈ 3.92 µM)	1.56 µg/mL (≈ 1.96 µM)	1.56 µg/mL (≈ 1.96 µM)	12.5 µg/mL (≈ 15.7 µM)	< 0.006 µg/mL	0.1 µg/mL (≈ 0.125 µM)	< 0.006 µg/mL	0.1 µg/mL (≈ 0.125 µM)	12.5 µg/mL (≈ 15.7 µM)	0.2 µg/mL (≈ 0.251 µM)	MIC (P. cepacia OF189): < 0.006 µg/mL; MIC (C. freundii 1R523): 0.1 µg/mL (≈ 0.125 µM); MIC (C. freundii GN7391; Table 5): 3.13 µg/mL (≈ 3.92 µM); MIC (C. freundii GN7391; Table 6): 3.13 µg/mL (≈ 3.92 µM); MIC (E. cloacae 5D52-2): 0.39 µg/mL (≈ 0.489 µM); MIC (C. freundii 1R527): 0.1 µg/mL (≈ 0.125 µM); MIC (E. colacae GN7471): 1.56 µg/mL (≈ 1.96 µM); MIC (P. aeruginosa 5D58-1): 0.78 µg/mL (≈ 0.978 µM)
Cc1nc2nc(C(=O)O)cc(SCC3=C(C(=O)O)N4C(=O)C(NC(=O)C(=NOC(C)(C)C(=O)NNC(=O)c5ccc(O)c(O)c5)c5csc(N)n5)C4SC3)n2n1 (stereo not drawn) [Example 37]	< 0.006 µg/mL	25 µg/mL (≈ 30.2 µM)	0.2 µg/mL (≈ 0.242 µM)	0.78 µg/mL (≈ 0.942 µM)	0.39 µg/mL (≈ 0.471 µM)	0.39 µg/mL (≈ 0.471 µM)	0.2 µg/mL (≈ 0.242 µM)	0.2 µg/mL (≈ 0.242 µM)	0.05 µg/mL (≈ 0.0604 µM)	0.2 µg/mL (≈ 0.242 µM)	0.78 µg/mL (≈ 0.942 µM)	0.78 µg/mL (≈ 0.942 µM)	3.13 µg/mL (≈ 3.78 µM)	25 µg/mL (≈ 30.2 µM)	0.012 µg/mL (≈ 0.0145 µM)	0.1 µg/mL (≈ 0.121 µM)	0.012 µg/mL (≈ 0.0145 µM)	0.1 µg/mL (≈ 0.121 µM)	6.25 µg/mL (≈ 7.55 µM)	0.2 µg/mL (≈ 0.242 µM)	MIC (P. cepacia OF189): < 0.006 µg/mL; MIC (C. freundii 1R523): 0.1 µg/mL (≈ 0.121 µM); MIC (C. freundii GN7391; Table 5): 1.56 µg/mL (≈ 1.88 µM); MIC (C. freundii GN7391; Table 6): 3.13 µg/mL (≈ 3.78 µM); MIC (E. cloacae 5D52-2): 0.1 µg/mL (≈ 0.121 µM); MIC (C. freundii 1R527): 0.1 µg/mL (≈ 0.121 µM); MIC (E. colacae GN7471): 0.78 µg/mL (≈ 0.942 µM); MIC (P. aeruginosa 5D58-1): 0.78 µg/mL (≈ 0.942 µM)
CC(C)(ON=C(C(=O)NC1C(=O)N2C(C(=O)O)=C(CSc3c4c(nc5ncnn35)CCC4)CSC12)c1csc(N)n1)C(=O)NNC(=O)c1ccc(O)c(O)c1 (stereo not drawn) [Example 36]	0.012 µg/mL (≈ 0.0148 µM)	6.25 µg/mL (≈ 7.72 µM)	0.39 µg/mL (≈ 0.482 µM)	0.78 µg/mL (≈ 0.963 µM)	0.2 µg/mL (≈ 0.247 µM)	1.56 µg/mL (≈ 1.93 µM)	0.39 µg/mL (≈ 0.482 µM)	0.39 µg/mL (≈ 0.482 µM)	0.2 µg/mL (≈ 0.247 µM)	0.39 µg/mL (≈ 0.482 µM)	12.5 µg/mL (≈ 15.4 µM)	3.13 µg/mL (≈ 3.86 µM)	12.5 µg/mL (≈ 15.4 µM)	12.5 µg/mL (≈ 15.4 µM)	0.012 µg/mL (≈ 0.0148 µM)	0.2 µg/mL (≈ 0.247 µM)	0.012 µg/mL (≈ 0.0148 µM)	0.2 µg/mL (≈ 0.247 µM)	12.5 µg/mL (≈ 15.4 µM)	0.39 µg/mL (≈ 0.482 µM)	MIC (P. cepacia OF189): 0.012 µg/mL (≈ 0.0148 µM); MIC (C. freundii 1R523): 0.2 µg/mL (≈ 0.247 µM); MIC (C. freundii GN7391; Table 5): 3.13 µg/mL (≈ 3.86 µM); MIC (C. freundii GN7391; Table 6): 6.25 µg/mL (≈ 7.72 µM); MIC (E. cloacae 5D52-2): 0.2 µg/mL (≈ 0.247 µM); MIC (C. freundii 1R527): 0.2 µg/mL (≈ 0.247 µM); MIC (E. colacae GN7471): 3.13 µg/mL (≈ 3.86 µM); MIC (P. aeruginosa 5D58-1): 0.78 µg/mL (≈ 0.963 µM)
